What is called IC50 is the concentration needed to halve the response being measured.

For the first experiment, the target named is T1, human capsaicin receptor (Homo sapiens, UniProt Q8NER1).
T1 construct: pBK-CMV expression construct encoding the full length human capsaicin receptor; expressed in transfected cells
T1 sequence (Q8NER1 whole entry): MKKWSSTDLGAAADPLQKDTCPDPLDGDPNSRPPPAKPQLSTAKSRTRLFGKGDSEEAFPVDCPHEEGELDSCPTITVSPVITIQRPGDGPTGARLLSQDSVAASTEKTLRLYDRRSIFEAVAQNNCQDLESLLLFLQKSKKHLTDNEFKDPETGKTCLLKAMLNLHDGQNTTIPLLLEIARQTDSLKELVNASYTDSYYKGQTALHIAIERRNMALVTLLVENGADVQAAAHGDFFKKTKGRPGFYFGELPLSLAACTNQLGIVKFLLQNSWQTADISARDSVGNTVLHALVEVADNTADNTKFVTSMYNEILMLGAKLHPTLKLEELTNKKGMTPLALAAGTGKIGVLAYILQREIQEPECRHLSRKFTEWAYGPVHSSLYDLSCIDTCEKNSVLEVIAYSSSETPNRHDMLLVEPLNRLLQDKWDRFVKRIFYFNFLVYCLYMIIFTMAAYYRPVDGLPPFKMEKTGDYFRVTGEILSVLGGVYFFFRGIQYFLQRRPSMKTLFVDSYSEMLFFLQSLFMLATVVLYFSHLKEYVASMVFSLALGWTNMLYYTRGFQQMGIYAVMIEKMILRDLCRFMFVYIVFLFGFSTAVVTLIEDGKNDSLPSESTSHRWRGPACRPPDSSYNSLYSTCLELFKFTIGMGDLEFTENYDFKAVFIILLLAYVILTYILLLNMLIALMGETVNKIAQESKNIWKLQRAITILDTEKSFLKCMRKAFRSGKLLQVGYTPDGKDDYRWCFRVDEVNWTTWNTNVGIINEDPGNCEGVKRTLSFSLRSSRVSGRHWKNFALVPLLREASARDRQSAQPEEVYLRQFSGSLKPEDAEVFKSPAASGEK
The experiment can be described thus: Calcium mobilization assay, determination of antagonist activity (Example 6). The experiment is classed as cell-based. The conditions noted are these: Table II; IC50 determined as described in Example 6. The method, boiled down: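 HEK293 clonal lines stably expressing full-length human capsaicin receptor, loaded with Fluo-3 AM in KRH buffer pH 7.4, 1–2 h at 37 °C. Compounds (1–5 μM final) preincubated 0.5–6 h at room temperature, then capsaicin at its EC50 added. FLIPR/Fluoroskan calcium signal; IC50 as 50% decrease of capsaicin response.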
A general note: A change in cytosolic calcium serves as a functional read-out for many receptors and channels.
Regarding `C[C@@H]1CN(c2ncccc2Cl)CCN1c1cc(-c2ccc(F)cc2)nc(N2CCOCC2)n1` [Example 487, 4-[4-[(2R)-4-(3-chloropyridin-2-yl)-2-methylpiperazin-1-yl]-6-(4-fluorophenyl)pyrimidin-2-yl]morpholine], the IC50 was no more than 1000 nM. On the same count and under the same terms, to `CCc1cccc(-c2cc(N3CCN(c4ncccc4C)C[C@H]3C)nc(N3CCOCC3)n2)c1` [Example 515, 4-{4-(3-ethylphenyl)-6-[(2R)-2-methyl-4-(3-methylpyridin-2-yl)piperazin-1-yl]pyrimidin-2-yl}morpholine] belongs no more than 1000 nM; to `CCCCN1CCN(c2nc(-c3ccc(F)c(C)c3)nc(N3CCN(c4ncccc4C(F)(F)F)CC3)n2)CC1` [Example 452, 2-(4-butylpiperazin-1-yl)-4-(4-fluoro-3-methylphenyl)-6-{4-[3-(trifluoromethyl)pyridin-2-yl]piperazin-1-yl}-1,3,5-triazine], no more than 1000 nM; to `Fc1ccc(-c2nc(N3CCOCC3)nc(N3CCN(c4ccccn4)CC3)n2)cc1F` [Example 424, 2-(3,4-difluorophenyl)-4-morpholin-4-yl-6-(4-pyridin-2-ylpiperazin-1-yl)-1,3,5-triazine], no more than 1000 nM. Still for that read-out and setting: to `CCc1ccc(-c2cc(N3CCN(c4ncccc4C#N)C[C@H]3C)nc(N3CCOCC3)n2)cc1` [Example 509, 2-{(3R)-4-[6-(4-ethylphenyl)-2-morpholin-4-ylpyrimidin-4-yl]-3-methylpiperazin-1-yl}nicotinonitrile] belongs no more than 1000 nM.

Staying with this experiment, now noted: Table II; IC50 determined as described in Example 6 (antagonist activity, calcium mobilization).
With `C[C@H]1CN(c2nccnc2Cl)CCN1c1cc(-c2ccc(F)c(Cl)c2)nc(Cl)n1` [Example 971, 2-chloro-4-(3-chloro-4-fluorophenyl)-6-[(2S)-4-(3-chloropyrazin-2-yl)-2-methylpiperazin-1-yl]pyrimidine], the IC50 is no more than 1000 nM. On to `Cc1ccc(-c2cc(N3CCN(c4ncccc4Cl)C[C@H]3C)nc(N3CCOCC3)n2)cc1Cl` [Example 998, 4-{4-(3-chloro-4-methylphenyl)-6-[(2R)-4-(3-chloropyridin-2-yl)-2-methylpiperazin-1-yl]pyrimidin-2-yl}morpholine], for which the IC50 is no more than 1000 nM. Same read-out and setting: the same measure for `C[C@@H]1CN(c2ncccc2C(F)(F)F)CCN1c1cc(-c2ccc(F)c(F)c2)nc(N2CCC[C@@H]2C)n1` [Example 995, 4-(3,4-difluorophenyl)-2-[(2S)-2-methylpyrrolidin-1-yl]-6-{(2R)-2-methyl-4-[3-(trifluoromethyl)pyridin-2-yl]piperazin-1-yl}pyrimidine]: no more than 1000 nM.

Staying with this experiment, now noted: Table II; determined as described in Example 6 (antagonist activity); "*" = 1 micromolar or less.
On to `CCCN1C[C@H]2C[C@@H]1CN2c1nc(-c2ccc(F)c(Cl)c2)cc(N2CCN(c3ncccc3C(F)(F)F)CC2)n1` [Example 777, (1R,4R)-2-(4-(3-chloro-4-fluorophenyl)-6-{4-[3-(trifluoromethyl)pyridin-2-yl]piperazin-1-yl}pyrimidin-2-yl)-5-propyl-2,5-diazabicyclo[2.2.1]heptane], for which the IC50 was no more than 1000 nM. As to `C[C@H]1CN(c2ncccc2Cl)CCN1c1cc(-c2ccc(Cl)c(F)c2)nc(N2CCOCC2)n1` [Example 959, 4-{4-(4-chloro-3-fluorophenyl)-6-[(2S)-4-(3-chtoropyridin-2-yl)-2-methylpiperazin-1-yl]pyrimidin-2-yl}morpholine], the IC50 was no more than 1000 nM. As for `C[C@@H]1CN(c2ncccc2C(F)(F)F)CCN1c1cc(-c2ccc(F)c(F)c2)nc(N2CCCC2)n1` [Example 791, 4-(3,4-difluorophenyl)-6-{(2R)-2-methyl-4-[3-(trifluoromethyl)pyridin-2-yl]piperazin-1-yl}-2-pyrrolidin-1-ylpyrimidine], the IC50 is no more than 1000 nM. On the same count and under the same terms, to `C[C@@H]1CCCN1c1nc(-c2ccc(Cl)c(F)c2)cc(N2CCN(c3nccnc3Cl)C[C@@H]2C)n1` (relative stereo) [Example 969, rel-4-(4-chloro-3-fluorophenyl)-6-[(2R)-4-(3-chloropyrazin-2-yl)-2-methylpiperazin-1-yl]-2-[(2S)-2-methylpyrrolidin-1-yl]pyrimidine] belongs no more than 1000 nM; to `C[C@@H]1CN(c2ncccc2F)CCN1c1cc(-c2ccc(F)c(F)c2)nc(N2CCOCC2)n1` [Example 897, 4-{4-(3,4-difluorophenyl)-6-[(2R)-4-(3-fluoropyridin-2-yl)-2-methylpiperazin-1-yl]pyrimidin-2-yl}morpholine], no more than 1000 nM. Take `CC1CCCN1c1nc(-c2ccc(F)cc2)cc(N2CCN(c3nccnc3Cl)C[C@H]2C)n1` (stereo partly drawn) [Example 926, 4-[4-(3-chloropyrazin-2-yl)-2-methylpiperazin-1-yl]-6-(4-fluorophenyl)-2-(2-methylpyrrolidin-1-yl)pyrimidine]: the IC50 was no more than 1000 nM. Same read-out and setting: the same measure for `OC1CN(c2nc(-c3ccc(F)c(Cl)c3)cc(N3CCN(c4ncccc4C(F)(F)F)CC3)n2)C1` [Example 774, 1-(4-(3-chloro-4-fluorophenyl)-6-{4-[3-(trifluoromethyl)pyridin-2-yl]piperazin-1-yl}pyrimidin-2-yl)azetidin-3-ol]: no more than 1000 nM; for `CC1CCCN1c1nc(-c2ccc(Cl)c(F)c2)cc(N2CCN(c3ncccc3Cl)C[C@H]2C)n1` (stereo partly drawn) [Example 834, 4-(4-chloro-3-fluorophenyl)-6-[4-(3-chloropyridin-2-yl)-2-methylpiperazin-1-yl]-2-(2-methylpyrrolidin-1-yl)pyrimidine]: no more than 1000 nM.

Staying with this experiment, now noted: Table II; determined as described in Example 6; class symbol.
For `Cc1ccccc1-c1nc(N2CCOCC2)nc(N2CCN(c3ccccn3)CC2)n1` [Example 268, 2-(2-methylphenyl)-4-morpholin-4-yl-6-(4-pyridin-2-ylpiperazin-1-yl)-1,3,5-triazine], the half-inhibitory concentration (IC50) was no more than 1000 nM. The same measure, in the same setting: the same measure for `CCc1cccc(-c2nc(N3CCOCC3)nc(N3CCN(c4ccccn4)CC3)n2)c1` [Example 237, 2-(3-ethylphenyl)-4-morpholin-4-yl-6-(4-pyridin-2-ylpiperazin-1-yl)-1,3,5-triazine]: no more than 1000 nM.

Staying with this experiment, now noted: determined as described in Example 6 (calcium mobilization, antagonist activity); Table II.
Take `Cc1cc(-c2cc(N3CCN(c4ncccc4C(F)(F)F)CC3)nc(N(C)C3CC3)n2)ccc1F` [Example 736, N-cyclopropyl-4-(4-fluoro-3-methylphenyl)-N-methyl-6-{4-[3-(trifluoromethyl)pyridin-2-yl]piperazin-1-yl}pyrimidin-2-amine]: the IC50 was no more than 1000 nM.

Regarding `Cc1cc(-c2cc(N3CCN(c4ncccc4C(F)(F)F)CC3)nc(-c3ccncc3)n2)ccc1F` [Example 689, 4-(4-fluoro-3-methylphenyl)-2-pyridin-4-yl-6-{4-[3-(trifluoromethyl)pyridin-2-yl]piperazin-1-yl}pyrimidine], the IC50 is no more than 1000 nM. On to `Nc1nc(-c2ccc(F)c(Cl)c2)cc(N2CCN(c3ncccc3C(F)(F)F)CC2)n1` [Example 584, 4-(3-chloro-4-fluorophenyl)-6-{4-[3-(trifluoromethyl)pyridin-2-yl]piperazin-1-yl}pyrimidin-2-amine], for which the IC50 was no more than 1000 nM. Regarding `Fc1ccc(-c2cc(N3CCN(c4ncccc4C(F)(F)F)CC3)nc(SCc3ccccc3)n2)cc1Cl` [Example 649, 2-(benzylthio)-4-(3-chloro-4-fluorophenyl)-6-{4-[3-(trifluoromethyl)pyridin-2-yl]piperazin-1-yl}pyrimidine], the IC50 was no more than 1000 nM. Turning to `CC(=O)c1nc(-c2ccc(F)c(C)c2)cc(N2CCN(c3ncccc3C(F)(F)F)CC2)n1` [Example 672, 1-(4-(4-fluoro-3-methylphenyl)-6-{4-[3-(trifluoromethyl)pyridin-2-yl]piperazin-1-yl}pyrimidin-2-yl)ethanone], the concentration for half-maximal inhibition (IC50) was no more than 1000 nM. The same measure, in the same setting: the same measure for `Cc1cc(-c2cc(N3CCN(c4ncccc4C(F)(F)F)C[C@H]3C)nc(N3CCCC3C)n2)ccc1F` (stereo partly drawn) [Example 754, 4-(4-fluoro-3-methyiphenyl)-2-(2-methylpyrrolidin-1-yl)-6-{(2R)-2-methyt-4-[3-(trifluoromethyl)pyridin-2-yl]piperazin-1-yl}pyrimidine]: no more than 1000 nM; for `Fc1ccc(-c2cc(N3CCN(c4ncccc4C(F)(F)F)CC3)nc(N3CCC[C@H]3CN3CCCC3)n2)cc1Cl` [Example 664, 4-(3-chloro-4-fluorophenyl)-2-[(2S)-2-(pyrrolidin-1-ylmethyl)pyrrolidin-1-yl]-6-{4-[3-(trifluoromethyl)pyridin-2-yl]piperazin-1-yl}pyrimidine]: no more than 1000 nM; for `Fc1ccc(-c2cc(N3CCN(c4ncccc4Cl)CC3)nc(SCc3ccccc3)n2)cc1Cl` [Example 700, 2-(benzylthio)-4-(3-chloro-4-fluorophenyl)-6-[4-(3-chloropyridin-2-yl)piperazin-1-yl]pyrimidine]: no more than 1000 nM. As to `CC(C)c1nccn1-c1nc(-c2ccc(F)c(Cl)c2)cc(N2CCN(c3ncccc3C(F)(F)F)CC2)n1` [Example 651, 4-(3-chloro-4-fluorophenyl)-2-(2-isopropyl-1H-imidazo-1-yl)-6-{4-[3-(trifluoromethyl)pyridin-2-yl]piperazin-1-yl}pyrimidine], the IC50 is no more than 1000 nM.

Turning to `O=C1CCCN1c1nc(-c2ccc(F)c(Cl)c2)cc(N2CCN(c3ncccc3C(F)(F)F)CC2)n1` [Example 668, 1-(4-(3-chloro-4-fluorophenyl)-6-{4-[3-(trifluoromethyl)pyridin-2-yl]piperazin-1-yl}pyrimidin-2-yl)pyrrolidin-2-one], the IC50 is no more than 1000 nM. As to `Cc1cc(-c2cc(N3CCN(c4ncccc4C(F)(F)F)CC3)nc(N3CCCCS3(=O)=O)n2)ccc1F` [Example 685, 2-(4-(4-fluoro-3-methylphenyl)-6-{4-[3-(trifluoromethyl)pyridin-2-yl]piperazin-1-yl}pyrimidin-2-yl)-1,2-thiazinane 1,1-dioxide], the IC50 is no more than 1000 nM. The same measure, in the same setting: to `Fc1ccc(-c2cc(N3CCN(c4ncccc4C(F)(F)F)CC3)nc(N3CCN(CC4CC4)CC3)n2)cc1Cl` [Example 624, 4-(3-chloro-4-fluorophenyl)-2-[4-(cyclopropylmethyl)piperazin-1-yl]-6-{4-[3-(trifluoromethyl)pyridin-2-yl]piperazin-1-yl}pyrimidine] belongs no more than 1000 nM.

Source of the values: patent US7566712B2, “Biaryl piperazinyl-pyridine analogues” (Neurogen Corporation, priority 2003, dated 2009).
